Tested on: M2-like macrophages
Assay: IL-8 secretion by monocyte-derived macrophages treated with mGluR8 agonist (LEGENDplex bead-based immunoassay)
Format: cell-based, human
Conditions: supernatant; for Fold change of IL-8 (Normalized to M2-like Macs + LPS with no compound treatment): human monocyte-derived macrophages, LEGENDplex
Procedure: CD14+ monocytes were isolated from human PBMCs using negative magnetic bead selection (Stemcell Technologies) on day 0. Cells were cultured with M-CSF to differentiate monocytes to macrophages. On day 6, cells were treated with L-AP4 (selective group III metabotropic glutamate receptor agonist) (Sigma-Aldrich), at concentrations 1 μM and 10 μM overnight. Supernatant was collected and LEGENDplex™ bead-based immunoassays (Biolegend) were performed to detect for changes in cytokines secreted.
Secretion of the inflammatory cytokine, IL-8, was decreased with the addition of the mGluR8 agonist in M2-like macrophages, consistent across multiple donors, as shown in Table 17 below.

Q: With NC(CCP(=O)(O)O)C(=O)O [L-AP4] as the compound, how does the “Fold change of IL-8 (Normalized to M2-like Macs + LPS with no compound treatment)” value (M2-like Macs + L-AP4 1 μM overnight) read?
A: 0.646

Q: And the “Fold change of IL-8 (Normalized to M2-like Macs + LPS with no compound treatment)” value (M2-like Macs + L-AP4 10 μM overnight)?
A: 0.866

Q: What about the “Secretion of the inflammatory cytokine IL-8” value (macrophages differentiated with M-CSF from CD14+ monocytes of human PBMCs, L-AP4 at 1 μM and 10 μM overnight, multiple donors) of the same compound?
A: decreased

From US10683352B1, “Methods for treating cancer using GRM8 inhibitors” (Flagship Pioneering Innovations V, Inc., priority 2018, dated 2020)
